Data published in patent US20230218573A1, “INDOLE COMPOUNDS FOR THE TREATMENT OF NEURODEGENERATIVE DISEASES” (GALYAN BIO, INC., priority 2020, published 2023).

Experiments:
[1] = tested on: STHdh 111/111 striatal cells; test: Cell viability (CellTiter Glo) of heat shocked STHdh 111/111 striatal cells; assay type: cell-based, mouse
Procedure: Cell culture - ST HDH Q111/111 (CH00095, Coriell Institute) striatal derived cell line were grown at 33° C. in DMEM (Sigma-Aldrich), supplemented with 10% fetal bovine serum (FBS), 1% Penicillin-Streptomycin (ThermoFisher Scientific), and 0.4 mg/ml G418 (Geneticin; Invitrogen). ST HDH Q111/111 are mouse striatal cells with polyQ length of 1111.
Pre-Treatment of striatal cell line - First the medium was removed and new DMEM (DMEM, high glucose, HEPES, no phenol red) medium, supplemented with 10% fetal bovine serum (FBS), 1% Penicillin-Streptomycin, containing 10 µM compound was added. The cells were incubated at 33° C. for 24 hours.
Heat shock - Cells were heat shocked for 3 hours at 41° C.
Treatment - Medium was removed and new DMEM (DMEM, high glucose, HEPES, no phenol red) medium, supplemented with 1% fetal bovine serum (FBS), 1% Penicillin-Streptomycin, containing 10 µM compound was added. The cells were incubated at 33° C. for 48 hours.
Cell Viability - Cell viability was measured according to manufacturer recommendations with CellTiter Glo (Promega). 96-well plates for used either for cell viability determination or cell staining.

STHdh 7/7 striatal cells = test: Cell viability of heat shocked STHdh 7/7 striatal cells; assay type: cell-based, mouse; details: Mus musculus, 48 hours treatment, read-out: Cell Viability striatal cells 3h heat shocked
Procedure: RESULTS - Table 7b summarizes the effect of the compounds on cell viability. STHdh 7/7 were heat shocked for 3 hours and treated for 48 hours with small molecule compounds. Table 2 lists the cell viability in striatal cells after 48 hours.
Effect of Compound 22 on Cell Viability of Wildtype Striatal Neurons - STHdh 7/7 cells are striatal cells that express wildtype huntingtin. These cells were cultured in the same conditions as described above for STHdh 111/111. The neurons were first heat shocked for 3 hours at 41° C. as described above. After 48 hours of treatment with the small molecule Compounds, cell viability was determined using the method described above. The “buffer” control is represents cells treated with a buffer only, without any compounds added. Some of the compounds show higher cell viability in comparison to control heat shocked STHdh 7/7 neurons with buffer and no treatment (FIG. 9).

[2] = Microsomal stability in mice; assay type: in vitro ADME
Slc32a1 = test: Nanostring gene expression in STHdh 111/111 cells: Slc32a1; assay type: cell-based, mouse; details: treated STHdh 111/111 (Q111-10), 48 h; in comparison to untreated STHdh 111/111
Procedure: (§1) Gene expression of certain transcripts of interest were measured using Nanostring Technology. […] Some STHdh 7/7 and STHdh 111/111 cell samples were not heat shocked and some wells were treated with Compound 22 at the indicated concentration on for 48 hours (Table 12). Some STHdh 7/7 and STHdh 111/111 cell samples were heat shocked for 3 hours some wells were treated with Compound 22 at the indicated concentration on for 48 hours (Table 13). Cells are washed with PBS, trypsinised, and gathered in a 15 ml falcon tube. After a short spin down for 3 minutes at 300 g, the cell pellet was washed with PBS once, before it was frozen down in liquid nitrogen. RNA was extracted with a standard protocol. The nCounter® Mouse Neuropathology Panel (Nanostring, Seattle) was used for gene expression analysis according to the manufacturer’s protocols.

KCNA1 = test: Nanostring gene expression in STHdh 111/111 cells: Kcna; assay type: cell-based, mouse; details: treated STHdh 111/111 (Q111-10), 48 h; in comparison to untreated STHdh 111/111
Procedure: as §1

[3] = Microsomal stability in humans; assay type: in vitro ADME; details: humans versus mice
mHTT = mHTT (Mus musculus, UniProt P42859, DEL28-30/G47A/INS49LLPQPQPP/INS60VA/L56P/P40L); test: Diffuse mHTT levels in heat shocked STHdh 111/111 striatal cells by immunocytochemistry; details: STHdh 111/111; in comparison to untreated cells
mHTT, sequence (P42859 with tags, fused parts or gaps DEL28-30/P40L/G47A/INS49LLPQPQPP/L56P/INS60VA): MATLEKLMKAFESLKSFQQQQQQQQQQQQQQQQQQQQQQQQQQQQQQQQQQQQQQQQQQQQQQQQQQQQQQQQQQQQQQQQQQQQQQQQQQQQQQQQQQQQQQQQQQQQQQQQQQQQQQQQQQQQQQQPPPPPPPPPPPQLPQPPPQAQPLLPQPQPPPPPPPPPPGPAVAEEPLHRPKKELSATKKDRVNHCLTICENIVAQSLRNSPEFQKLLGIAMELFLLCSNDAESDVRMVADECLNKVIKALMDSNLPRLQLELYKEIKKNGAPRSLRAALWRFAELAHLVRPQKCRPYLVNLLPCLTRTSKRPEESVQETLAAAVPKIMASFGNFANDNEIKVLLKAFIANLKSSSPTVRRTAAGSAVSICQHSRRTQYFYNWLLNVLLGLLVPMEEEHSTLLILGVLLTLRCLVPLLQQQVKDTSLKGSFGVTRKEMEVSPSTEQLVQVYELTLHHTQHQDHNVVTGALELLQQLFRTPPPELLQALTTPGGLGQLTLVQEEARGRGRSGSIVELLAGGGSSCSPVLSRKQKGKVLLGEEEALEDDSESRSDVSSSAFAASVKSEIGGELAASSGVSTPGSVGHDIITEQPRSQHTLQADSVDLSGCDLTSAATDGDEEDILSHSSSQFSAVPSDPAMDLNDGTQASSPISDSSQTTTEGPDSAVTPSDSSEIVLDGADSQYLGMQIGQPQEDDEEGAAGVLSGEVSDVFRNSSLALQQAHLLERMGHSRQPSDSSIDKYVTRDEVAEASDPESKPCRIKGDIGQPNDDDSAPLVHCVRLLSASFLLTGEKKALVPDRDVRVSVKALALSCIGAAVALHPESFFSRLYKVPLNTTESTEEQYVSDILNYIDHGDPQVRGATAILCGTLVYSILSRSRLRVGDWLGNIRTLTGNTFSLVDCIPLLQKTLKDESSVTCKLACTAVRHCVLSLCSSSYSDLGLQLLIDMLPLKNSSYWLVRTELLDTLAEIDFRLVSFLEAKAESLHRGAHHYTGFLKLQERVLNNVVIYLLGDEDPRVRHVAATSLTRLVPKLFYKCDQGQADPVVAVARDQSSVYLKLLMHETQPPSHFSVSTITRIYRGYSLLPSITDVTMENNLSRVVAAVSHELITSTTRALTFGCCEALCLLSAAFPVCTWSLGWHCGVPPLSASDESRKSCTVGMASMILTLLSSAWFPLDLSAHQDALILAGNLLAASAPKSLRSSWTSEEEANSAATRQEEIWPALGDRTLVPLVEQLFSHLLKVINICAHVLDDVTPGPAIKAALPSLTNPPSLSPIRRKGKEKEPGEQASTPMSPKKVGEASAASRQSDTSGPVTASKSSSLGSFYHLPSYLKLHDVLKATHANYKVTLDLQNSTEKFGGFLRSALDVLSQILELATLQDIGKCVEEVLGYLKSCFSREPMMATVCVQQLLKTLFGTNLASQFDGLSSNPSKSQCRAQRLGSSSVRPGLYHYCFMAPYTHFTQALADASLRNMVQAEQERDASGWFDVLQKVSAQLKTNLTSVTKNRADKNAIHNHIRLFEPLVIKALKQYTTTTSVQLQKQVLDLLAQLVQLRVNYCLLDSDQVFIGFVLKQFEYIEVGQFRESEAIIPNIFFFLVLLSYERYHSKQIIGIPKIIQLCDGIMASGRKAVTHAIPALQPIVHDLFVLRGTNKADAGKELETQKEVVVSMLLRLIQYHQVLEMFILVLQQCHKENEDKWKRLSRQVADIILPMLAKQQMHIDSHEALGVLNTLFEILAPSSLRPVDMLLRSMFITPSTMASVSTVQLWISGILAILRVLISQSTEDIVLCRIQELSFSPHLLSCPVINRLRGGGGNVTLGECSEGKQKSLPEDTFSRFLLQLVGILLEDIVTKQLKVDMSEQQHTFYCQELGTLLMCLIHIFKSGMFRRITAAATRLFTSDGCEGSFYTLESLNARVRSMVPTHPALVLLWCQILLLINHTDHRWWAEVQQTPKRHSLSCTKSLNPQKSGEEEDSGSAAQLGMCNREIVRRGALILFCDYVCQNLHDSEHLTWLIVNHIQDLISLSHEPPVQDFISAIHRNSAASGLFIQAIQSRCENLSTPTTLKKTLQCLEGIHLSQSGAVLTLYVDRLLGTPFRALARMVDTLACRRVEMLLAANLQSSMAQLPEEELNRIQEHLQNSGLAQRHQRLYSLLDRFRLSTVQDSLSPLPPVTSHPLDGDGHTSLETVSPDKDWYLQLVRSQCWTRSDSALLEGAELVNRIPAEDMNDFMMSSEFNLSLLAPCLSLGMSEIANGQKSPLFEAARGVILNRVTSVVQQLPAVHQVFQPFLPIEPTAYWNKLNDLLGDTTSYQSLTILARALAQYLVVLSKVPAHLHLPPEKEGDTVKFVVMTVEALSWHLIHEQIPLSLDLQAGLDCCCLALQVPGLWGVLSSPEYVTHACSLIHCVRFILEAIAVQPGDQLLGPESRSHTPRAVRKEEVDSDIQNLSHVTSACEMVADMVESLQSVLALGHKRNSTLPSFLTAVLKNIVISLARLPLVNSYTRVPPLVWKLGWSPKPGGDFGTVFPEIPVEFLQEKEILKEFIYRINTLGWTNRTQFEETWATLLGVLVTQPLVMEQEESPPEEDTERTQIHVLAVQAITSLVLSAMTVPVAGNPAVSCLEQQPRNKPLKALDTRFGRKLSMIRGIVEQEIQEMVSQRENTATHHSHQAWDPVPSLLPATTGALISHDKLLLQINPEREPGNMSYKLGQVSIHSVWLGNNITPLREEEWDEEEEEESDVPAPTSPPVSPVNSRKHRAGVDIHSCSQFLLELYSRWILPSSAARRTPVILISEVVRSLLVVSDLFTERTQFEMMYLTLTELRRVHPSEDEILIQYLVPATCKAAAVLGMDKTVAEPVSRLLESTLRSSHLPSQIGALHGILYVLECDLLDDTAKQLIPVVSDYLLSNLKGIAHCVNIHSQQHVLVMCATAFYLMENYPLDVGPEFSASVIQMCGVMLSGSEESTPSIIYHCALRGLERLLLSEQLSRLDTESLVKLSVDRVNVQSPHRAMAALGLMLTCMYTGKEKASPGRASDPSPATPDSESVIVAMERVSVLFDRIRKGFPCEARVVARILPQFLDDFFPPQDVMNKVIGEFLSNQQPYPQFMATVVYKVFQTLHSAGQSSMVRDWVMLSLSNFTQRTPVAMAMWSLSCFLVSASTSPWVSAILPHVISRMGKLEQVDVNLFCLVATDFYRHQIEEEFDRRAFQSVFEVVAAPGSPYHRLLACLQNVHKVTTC

With Cc1[nH]c2ccc(C(=O)NCCN(C(C)C)C(C)C)cc2c1C [Compound 22] the viability at 10 µM ([1]; Mus musculus, STHdh 111/111, 10 µM, 48 hours treatment, read-out: Cell Viability striatal cells 3h heat shocked) was 102%, the “cell viability in comparison to pre-heat shock cell viability” value ([1]; STHdh 111/111, 48 hours after 3 hours heat shock) was 125% and the “cell viability at 24 hours after treatment” value ([1]; STHdh 111/111 after heat shock, versus STHdh 7/7 control cells) was “almost equivalent to the cell viability of STHdh 7/7 control cells”. For the same molecule, the viability at 10 µM (STHdh 7/7 striatal cells) was 34.9%, the microsomal stability [2] was “short” and the Slc32a1 expression upregulated (Slc32a1) was 12 fold. For the same molecule, the “Kcna1 expression increased by” value (KCNA1) was 68%, the “microsomal stability in humans in comparison to mice” value [3] was 20 times and the “Nuclear diffuse mHTT reduced by” value (mHTT) was 32%.
